{
  "source": "patent US20240393292A1",
  "about": "“ALLERGY ANTIGEN AND EPITOPE THEREOF” (HOYU CO., LTD., priority 2019, published 2024)",
  "key": {"[1]": {"tested_on": "IgE antibodies from patients having allergies to each food", "assay": "Confirmation of epitope cross-reactivity by ELISA with biotinylated peptides", "assay_type": "binding, human", "source_text": "Amino acids other than amino acids important for maintaining binding to IgE antibodies, in each of the epitope sequences found in the wheat proteins in Table 2 were defined as any given amino acid (X). NCBI was searched for proteins having the key sequences having the amino acid residues X in cooking ingredient allergens carried in common by each of the patients. As a result, an amino acid sequence contained in a sequence in each food described in the column “Food with which cross-reactivity was confirmed” in Table 2 was identified as one example.\nThe binding activity of peptides comprising the amino acid sequences described in the column “Synthesis sequence” and the rightmost column “SEQ ID NO” of Table 2 against IgE antibodies from patients having allergies to each food described in the column “Food with which cross-reactivity was confirmed” in Table 2 was confirmed by ELISA. The peptides were synthesized such that the peptides were N-terminally biotinylated by the Fmoc method.\nTo be specific, ELISA was carried out according to the following procedure. • (1) The concentrations of the biotinylated peptides were adjusted to 10 μg/mL with PBST (0.1% Tween 20). • (2) Each peptide solution was added at 20 μL to each well of a 384-well plate coated with streptavidin, and shaken at room temperature for one hour. After collection of the solution, the wells were washed with PBST five times. • (3) Pierce Protein-Free (PBS) Blocking Buffer (produced by Thermo) was added at 40 μL thereto and shaken at room temperature for one hour. After removal of the solution, the wells were washed with PBST five times. • (4) 2% serum/Canget SignalSolution I (produced by TOYOBO) was added at 20 μL thereto and shaken at room temperature for one hour. After removal of the solution, the wells were washed with PBST five times. • (5) A diluted secondary antibody solution (1:10000, Canget SignalSolution II (produced by TOYOBO)) was added at 20 μL thereto and shaken at room temperature for one hour. After removal of the solution, the wells were washed with PBST five times. • (6) 1-Step Ultra TMB-ELISA (produced by Thermo) was added at 20 μL thereto and shaken at room temperature for 15 minutes. • (7) 2 M H2SO4 was added at 20 μL thereto. Absorbance at 450 nm was measured.\nPeptides having these amino acid sequences were prepared by the same procedure as described in Example 4 (A), and the presence or absence of binding thereto of IgE antibodies present in the serum of an allergic patient and the serum of a nonallergic subject was measured. The serum of two nonallergic subjects was measured, and values obtained by dividing the measurement values by an average value thereof were used.\nThe bar graph of each figure depicts “absorbance of the allergic patient/absorbance of the nonallergic patient (healthy subject)”. The names of the cooking ingredients described in each graph are the names of cooking ingredients containing a polypeptide comprising an amino acid sequence serving as the basis of each synthetic sequence used."}, "[2]": {"tested_on": "IgE antibodies from patients", "assay": "Wheat epitope mapping (3): alanine/glycine scanning", "assay_type": "binding, human", "conditions": "from analysis of epitope mapping (A) to (C); many samples", "experimental": "From the amino acid sequences identified above in (A), a library of peptide fragments in which amino-terminal amino acids were substituted one by one by alanine (or glycine when the original amino acid was alanine) according to a technique called alanine/glycine scanning (Non Patent Literature 5) was prepared by the same technique as described above. The presence or absence of binding of an IgE antibody present in the serum of a patient to each peptide fragment was measured by the same technique as described above.\nChemiluminescence intensity in images obtained by measurement was converted into a numeric value in the same manner as in (A). Numeric values determined from images obtained from secondary antibody measurement values were used as control values. The control value of each peptide was subtracted from numeric values determined from images obtained from results about the serum of 49 patients. When values obtained using the sequences (SEQ ID NOs: 29, 131, 191, 281, 346, 414, 493, 562, 640, 706, 776, 899, 974, 1010, 1089, 1142, 1166, 1209, 1257, 1297, 1367, 1403, 1508, 1566, 1598, 1608, 1685, 1753, 1789, 1836, 1895, 1977, 2004, 2027, 2068, 2154, 2217, 2265, 2309, 2342, 2419, 2491, 2545, 2613, 2631, 2674, 2701, 2774, 2809 and 2830) serving as the basis of alanine/glycine scanning were defined as 100%, it was determined that: a peptide having a value of the difference that was less than 30% had no binding activity against IgE antibodies; a peptide having a value of the difference that was 30% or more and less than 50% had binding activity, albeit poor, against IgE antibodies; a peptide having a value of the difference that was 50% or more and less than 70% had binding activity, albeit somewhat poor, against IgE antibodies; and a peptide having a value of the difference that was 70% or more had equivalent or good binding activity against IgE antibodies and was thus a peptide had remaining binding activity against IgE antibodies.\nBy analysis of the results of (A) to (C), common sequences important for exertion of original antigenicity were found in regions important for binding to IgE antibodies from patients, in the sequences serving as the basis of alanine/glycine scanning."}, "[3]": {"conditions": "synthetic sequence, Graph No. 3, epitope of patient P8"}},
  "note": "Entries after “also recorded” stand apart in the source; their conditions may differ.",
  "data": [
    {"substance": "29 (QQILWYHQQQPIQQQ; REGION 1..15: note = epitope) [compound 29]", "values": [
      {"measurement": "Food in which cross-reactivity was confirmed", "setting": "[1]; serum IgE of patient P7 (WDEIA), epitope E1, LMW-D8(LMW-GS) B2BZD1, Spot No. 9, key sequence XXXXXXXQXXXIQQX (SEQ ID NO 45), Graph No. 1", "result": "Wheat"},
      {"measurement": "Food in which cross-reactivity was confirmed", "setting": "[1]; serum IgE of patient P13 (WDEIA), epitope E1, LMW-D8(LMW-GS) B2BZD1, Spot No. 9, key sequence XXXXXYXQXXXIQQX (SEQ ID NO 62), Graph No. 1", "result": "Wheat"},
      {"measurement": "Food in which cross-reactivity was confirmed", "setting": "[1]; serum IgE of patient P36 (WDEIA), epitope E1, LMW-D8(LMW-GS) B2BZD1, Spot No. 9, key sequence XXXXXXXQXXXIQQX (SEQ ID NO 122), Graph No. 1", "result": "Wheat"}
    ]},
    {"substance": "2881 (QEQQQYYPQQQAFFL; REGION 1..15: note = epitope) [compound 2881]", "values": [
      {"measurement": "Food in which cross-reactivity was confirmed", "setting": "[1]; serum IgE of patient P4 (WDEIA), epitope E3, LMW-D8(LMW-GS) B2BZD1, Spot No. 9, key sequence XXXQQXXPQQXXXXX (SEQ ID NO 203), Graph No. 1", "result": "Orchard grass"},
      {"measurement": "Food in which cross-reactivity was confirmed", "setting": "[1]; serum IgE of patient P10 (WDEIA), epitope E3, LMW-D8(LMW-GS) B2BZD1, Spot No. 9, key sequence XXXQQXXPQQQXXXX (SEQ ID NO 220), Graph No. 1", "result": "Orchard grass"},
      {"measurement": "Food in which cross-reactivity was confirmed", "setting": "[1]; serum IgE of patient P32 (WDEIA), epitope E3, LMW-D8(LMW-GS) B2BZD1, Spot No. 9, preferred sequence XXQQQXFPQQQXXXX (SEQ ID NO 268), Graph No. 1", "result": "Orchard grass"}
    ]},
    {"substance": "2889 (ILFEETLYQS; REGION 1..10: note = epitope) [compound 2889]", "values": [
      {"measurement": "Food in which cross-reactivity was confirmed", "setting": "[1]; epitope E10 (Fructose-bisphosphate aldolase W5CCA9), listed under patient P8, Graph No. 3", "result": "Wheat/rye/barley"}
    ]},
    {"substance": "2910 (SLAEYTVRTLQRTVP; REGION 1..15: note = epitope) [compound 2910]", "values": [
      {"measurement": "Food in which cross-reactivity was confirmed", "setting": "[1]; Graph No. 2, synthetic sequence listed under patient P16", "result": "Wheat/rye/barley/; also recorded: timothy"}
    ]},
    {"substance": "2922 (GIDKRV; REGION 1..6: note = epitope) [compound 2922]", "values": [
      {"measurement": "Food in which cross-reactivity was confirmed", "setting": "[1]; [3]", "result": "Wheat/barley"}
    ]},
    {"substance": "2923 (KRVIERFEK; REGION 1..9: note = epitope) [compound 2923]", "values": [
      {"measurement": "Food in which cross-reactivity was confirmed", "setting": "[1]; [3]", "result": "Wheat/barley"}
    ]},
    {"substance": "GLFGTN (GIFGTN)", "values": [
      {"measurement": "Food in which cross-reactivity was confirmed", "setting": "[1]; synthetic sequence tested for IgE binding by ELISA, Graph No. 3, epitope row of patient P8", "result": "Wheat/barley/rye 3"}
    ]},
    {"substance": "NEPSQLSLDQNAQGL", "values": [
      {"measurement": "Food in which cross-reactivity was confirmed", "setting": "[1]; epitope E16 (Fructose-bisphosphate aldolase W5CCA9, Spot No. 4), patient P21, key sequence XXXXQXXXDQNXXXX (SEQ ID NO 1144), Graph No. 2", "result": "timothy"}
    ]},
    {"substance": "QPIQ (REGION 1..4: note = epitope) [SEQ ID NO: 30]", "values": [
      {"measurement": "short polypeptide confirmed as epitope binding to IgE antibodies", "setting": "[2]", "result": "confirmed as epitopes binding to IgE antibodies in many samples"}
    ]},
    {"substance": "SEQ ID NO: 58: polypeptide consisting of 4 amino acid residues, among sequences of (E1) (PIQQ; REGION 1..4: note = epitope)", "values": [
      {"measurement": "short polypeptide confirmed as epitope binding to IgE antibodies", "setting": "[2]", "result": "confirmed as epitopes binding to IgE antibodies in many samples"}
    ]},
    {"substance": "SEQ ID NO: 61: polypeptide consisting of 4 amino acid residues, among sequences of (E1) (QPIQ; REGION 1..4: note = epitope)", "values": [
      {"measurement": "short polypeptide confirmed as epitope binding to IgE antibodies", "setting": "[2]", "result": "confirmed as epitopes binding to IgE antibodies in many samples"}
    ]},
    {"substance": "SEQ ID NO: 222: polypeptide consisting of 4 amino acid residues, among sequences of (E3) (QQPF; REGION 1..4: note = epitope)", "values": [
      {"measurement": "short polypeptide confirmed as epitope binding to IgE antibodies", "setting": "[2]", "result": "confirmed as epitopes binding to IgE antibodies in many samples"}
    ]},
    {"substance": "SEQ ID NO: 238: polypeptide consisting of 4 amino acid residues, among sequences of (E3) (PFPQ; REGION 1..4: note = epitope)", "values": [
      {"measurement": "short polypeptide confirmed as epitope binding to IgE antibodies", "setting": "[2]", "result": "confirmed as epitopes binding to IgE antibodies in many samples"}
    ]},
    {"substance": "SEQ ID NO: 345: polypeptide consisting of 4 amino acid residues, among sequences of (E4) (QPFP; REGION 1..4: note = epitope)", "values": [
      {"measurement": "short polypeptide confirmed as epitope binding to IgE antibodies", "setting": "[2]", "result": "confirmed as epitopes binding to IgE antibodies in many samples"}
    ]}
  ]
}
